From patent US6706663B2, “Herbicidal 3-heterocyclic substituted benzisothiazole and benzisoxazole compounds” (Wyeth, priority 2000, dated 2004)

Experiments:
[1] = tested on: ZEAMX (Corn, Field); assay: Postemergence herbicidal evaluation; type: in vivo, Zea mays, L.
Method in brief: (§1)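 Seedlings grown about two weeks in flats, sprayed, then kept under standard greenhouse care. Rated visually 4–5 weeks after treatment on a 0–9 scale (stand, vigour, malformation, size, chlorosis, overall appearance) relative to untreated control; repeat tests averaged.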

[2] = tested on: ECHORC (Echinochloa oryzoides); assay: Flooded paddy, preemergence weed control; type: in vivo, Echinochloa oryzoides (Ard.) Fritsch.; conditions: rated 3-4 weeks after treatment, 0-9 rating scale
Method in brief: (§2)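 Seeds or propagating organs were sown in the top 0.5 cm of silt loam soil, flooded, and the water kept 1.5 to 3 cm above the soil surface throughout. Plants were grown in the greenhouse and rated visually on a 0-9 scale against a control.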

[3] = tested on: SAGPY (Sagittaria pygmaea); assay: Flooded paddy, postemergence weed control; type: in vivo, L.; conditions: postemergence weeds, rated 3-4 weeks after treatment
Method in brief: (§3)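 Weeds 3–5 cm tall and rice at 1.5–2.5 leaf stage in containers flooded 1.5–3 cm deep; compounds in 50/50 v/v aqueous/acetone injected into flood water at about 0.0320–0.2500 kg/ha. Greenhouse-held; visual 0–9 rating versus untreated control after three to four weeks.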

[4] = tested on: CYPIR (Cyperus iria); assay: Flooded paddy, postemergence weed control; type: in vivo; conditions: postemergence weeds, rated 3-4 weeks after treatment
Method in brief: as §3

[5] = tested on: SAGPY (Sagittaria pygmaea); assay: Flooded paddy, preemergence weed control; type: in vivo, L.; conditions: rated 3-4 weeks after treatment, 0-9 rating scale
Method in brief: as §2

[6] = tested on: ORYSAT (Rice, Tebonnet); assay: Postemergence herbicidal evaluation; type: in vivo, Oryza sativa, (L.) Tebonnet
Method in brief: as §1

[7] = tested on: ECHORC (Echinochloa oryzoides); assay: Flooded paddy, postemergence weed control; type: in vivo, Echinochloa oryzoides (Ard.) Fritsch.; conditions: postemergence weeds, rated 3-4 weeks after treatment
Method in brief: as §3

[8] = tested on: MOOVA (Monochoria vaginalis); assay: Flooded paddy, postemergence weed control; type: in vivo, Presl.; conditions: postemergence weeds, rated 3-4 weeks after treatment
Method in brief: as §3

[9] = tested on: CHEAL (Chenopodium album); assay: Postemergence herbicidal evaluation; type: in vivo, L.
Method in brief: as §1

[10] = tested on: CASOB (Cassia obtusifolia); assay: Postemergence herbicidal evaluation; type: in vivo, L.
Method in brief: as §1

[11] = tested on: AMBEL (Ambrosia artemisifolia); assay: Postemergence herbicidal evaluation; type: in vivo, L.
Method in brief: as §1

[12] = tested on: IPOHE (Ipomoea hederacea); assay: Preemergence herbicidal evaluation; type: in vivo, (L.) Jacq.; conditions: preemergence, rated 4-5 weeks after treatment
[13] = tested on: GLXMAW (Soybean, Williams); assay: Preemergence herbicidal evaluation; type: in vivo, Glycine max, (L.) Merr. cv Williams; conditions: preemergence, rated 4-5 weeks after treatment
[14] = tested on: CYPIR (Cyperus iria); assay: Flooded paddy, preemergence weed control; type: in vivo; conditions: rated 3-4 weeks after treatment, 0-9 rating scale
Method in brief: as §2

[15] = tested on: ECHCG (Echinochloa crus-galli); assay: Postemergence herbicidal evaluation; type: in vivo, (L.) Beau
Method in brief: as §1

[16] = tested on: TRZAWR (Wheat, Winter, cv Riband); assay: Preemergence herbicidal evaluation; type: in vivo, Triticum aestivum; conditions: preemergence, rated 4-5 weeks after treatment
Method in brief: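 Scores (0–9) reflect visual comparison with control plants for stand, vigor, malformation, size and chlorosis. Seeds in potting soil received a post-planting spray of compound in aqueous acetone and grew in a greenhouse until assessment 4–5 weeks later.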

[17] = tested on: ORYSAT (Rice, Tebonnet); assay: Preemergence herbicidal evaluation; type: in vivo, Oryza sativa, (L.) Tebonnet; conditions: preemergence, rated 4-5 weeks after treatment
[18] = tested on: ORYSAT (Rice, Tebonnet); assay: Flooded paddy, post-transplant and postemergence rice tolerance; type: in vivo, Oryza sativa, (L.) Tebonnet; conditions: post-transplant rice, rated 3-4 weeks after treatment
Method in brief: as §3

[19] = tested on: CYPSE (Cyperus serotinus); assay: Flooded paddy, postemergence weed control; type: in vivo, Rottb.; conditions: postemergence weeds, rated 3-4 weeks after treatment
Method in brief: as §3

SMILES: COC(=O)COc1ccsc1-c1nsc2ccc(-n3c(=O)cc(C(F)(F)F)n(C)c3=O)cc12 [Compound 22, Methyl [(2-[5-[3,6-dihydro-3-methyl-2,6-dioxo-4-(trifluoromethyl)-1(2H)-pyrimidinyl]-1,2-benzisothiazol-3-yl]-3-thienyl]oxy]acetate]
- Postemergence herbicidal rating, ZEAMX ([1]; rate 0.0320 kg/ha): 4.5
- Postemergence herbicidal rating, ZEAMX ([1]; rate 0.0620 kg/ha): 6.0
- Postemergence herbicidal rating, ZEAMX ([1]; rate 0.1250 kg/ha): 7.0
- herbicidal rating, ECHORC ([2]; rate 0.0080 kg/ha): 0.0
- herbicidal rating, ECHORC ([2]; rate 0.0320 kg/ha): 0.0
- herbicidal rating, ECHORC ([2]; rate 0.1250 kg/ha): 5.0
- herbicide rating (0-9) SAGPY ([3]; 0.0320 kg/ha into flood water): 0.0
- herbicide rating (0-9) SAGPY ([3]; 0.0620 kg/ha into flood water): 0.0
- herbicide rating (0-9) SAGPY ([3]; 0.1250 kg/ha into flood water): 0.0
- herbicide rating (0-9) CYPIR ([4]; 0.0320 kg/ha into flood water): 0.0
- herbicide rating (0-9) CYPIR ([4]; 0.0620 kg/ha into flood water): 0.0
- herbicide rating (0-9) CYPIR ([4]; 0.1250 kg/ha into flood water): 0.0
- herbicidal rating, SAGPY ([5]; rate 0.0080 kg/ha): 0.0
- herbicidal rating, SAGPY ([5]; rate 0.0320 kg/ha): 0.0
- herbicidal rating, SAGPY ([5]; rate 0.1250 kg/ha): 0.0
- Postemergence herbicidal rating, ORYSAT ([6]; rate 0.0320 kg/ha): 3.0
- Postemergence herbicidal rating, ORYSAT ([6]; rate 0.0620 kg/ha): 3.5
- Postemergence herbicidal rating, ORYSAT ([6]; rate 0.1250 kg/ha): 4.5
- herbicide rating (0-9) ECHORC ([7]; 0.0320 kg/ha into flood water): 0.0
- herbicide rating (0-9) ECHORC ([7]; 0.0620 kg/ha into flood water): 0.0
- herbicide rating (0-9) ECHORC ([7]; 0.1250 kg/ha into flood water): 0.0
- herbicide rating (0-9) MOOVA ([8]; 0.0320 kg/ha into flood water): 0.0
- herbicide rating (0-9) MOOVA ([8]; 0.0620 kg/ha into flood water): 0.0
- herbicide rating (0-9) MOOVA ([8]; 0.1250 kg/ha into flood water): 0.0
- Postemergence herbicidal rating, CHEAL ([9]; rate 0.0320 kg/ha): 1.0
- Postemergence herbicidal rating, CHEAL ([9]; rate 0.0620 kg/ha): 4.0
- Postemergence herbicidal rating, CHEAL ([9]; rate 0.1250 kg/ha): 4.0
- Postemergence herbicidal rating, CASOB ([10]; rate 0.0320 kg/ha): 0.0
- Postemergence herbicidal rating, CASOB ([10]; rate 0.0620 kg/ha): 0.0
- Postemergence herbicidal rating, CASOB ([10]; rate 0.1250 kg/ha): 1.0
- Postemergence herbicidal rating, AMBEL ([11]; rate 0.0320 kg/ha): 2.0
- Postemergence herbicidal rating, AMBEL ([11]; rate 0.0620 kg/ha): 4.0
- Postemergence herbicidal rating, AMBEL ([11]; rate 0.1250 kg/ha): 6.0
- IPOHE preemergence herbicidal rating ([12]; Rate 0.0620 kg/ha): 0.0
- IPOHE preemergence herbicidal rating ([12]; Rate 0.1250 kg/ha): 0.0
- IPOHE preemergence herbicidal rating ([12]; Rate 0.2500 kg/ha): 0.0
- GLXMAW preemergence herbicidal rating ([13]; Rate 0.0620 kg/ha): 0.0
- GLXMAW preemergence herbicidal rating ([13]; Rate 0.1250 kg/ha): 0.0
- GLXMAW preemergence herbicidal rating ([13]; Rate 0.2500 kg/ha): 0.0
- herbicidal rating, CYPIR ([14]; rate 0.0080 kg/ha): 0.0
- herbicidal rating, CYPIR ([14]; rate 0.0320 kg/ha): 2.5
- herbicidal rating, CYPIR ([14]; rate 0.1250 kg/ha): 3.0
- Postemergence herbicidal rating, ECHCG ([15]; rate 0.0320 kg/ha): 0.0
- Postemergence herbicidal rating, ECHCG ([15]; rate 0.0620 kg/ha): 2.0
- Postemergence herbicidal rating, ECHCG ([15]; rate 0.1250 kg/ha): 6.0
- TRZAWR preemergence herbicidal rating ([16]; Rate 0.0620 kg/ha): 0.0
- TRZAWR preemergence herbicidal rating ([16]; Rate 0.1250 kg/ha): 0.0
- TRZAWR preemergence herbicidal rating ([16]; Rate 0.2500 kg/ha): 0.0
- ORYSAT preemergence herbicidal rating ([17]; Rate 0.0620 kg/ha): 0.0
- ORYSAT preemergence herbicidal rating ([17]; Rate 0.1250 kg/ha): 0.0
- ORYSAT preemergence herbicidal rating ([17]; Rate 0.2500 kg/ha): 0.0
- herbicide rating (0-9) ORYSAT (rice tolerance) ([18]; 0.0320 kg/ha into flood water): 0.0
- herbicide rating (0-9) ORYSAT (rice tolerance) ([18]; 0.0620 kg/ha into flood water): 0.0
- herbicide rating (0-9) ORYSAT (rice tolerance) ([18]; 0.1250 kg/ha into flood water): 0.0
- herbicide rating (0-9) CYPSE ([19]; 0.0320 kg/ha into flood water): 0.0
- herbicide rating (0-9) CYPSE ([19]; 0.0620 kg/ha into flood water): 0.0
- herbicide rating (0-9) CYPSE ([19]; 0.1250 kg/ha into flood water): 0.0

SMILES: Cc1cscc1-c1nsc2ccc(-n3c(=O)cc(C(F)(F)F)n(C)c3=O)cc12 [Compound 26, 1-methyl-3-[3-(4-methyl-3-thienyl)-1,2-benzisothiazol-5-yl]-6-(trifluoromethyl)uracil]
- Postemergence herbicidal rating, ZEAMX ([1]; rate 0.0320 kg/ha): 5.0
- Postemergence herbicidal rating, ZEAMX ([1]; rate 0.0620 kg/ha): 5.5
- herbicidal rating, ECHORC ([2]; rate 0.0080 kg/ha): 8.0
- herbicidal rating, ECHORC ([2]; rate 0.0320 kg/ha): 9.0
- herbicidal rating, ECHORC ([2]; rate 0.1250 kg/ha): 9.0
- herbicide rating (0-9) SAGPY ([3]; 0.0320 kg/ha into flood water): 0.0
- herbicide rating (0-9) SAGPY ([3]; 0.0620 kg/ha into flood water): 0.0
- herbicide rating (0-9) SAGPY ([3]; 0.1250 kg/ha into flood water): 0.0
- herbicide rating (0-9) CYPIR ([4]; 0.0320 kg/ha into flood water): 9.0
- herbicide rating (0-9) CYPIR ([4]; 0.0620 kg/ha into flood water): 9.0
- herbicide rating (0-9) CYPIR ([4]; 0.1250 kg/ha into flood water): 9.0
- herbicidal rating, SAGPY ([5]; rate 0.0080 kg/ha): 1.5
- herbicidal rating, SAGPY ([5]; rate 0.0320 kg/ha): 5.3
- herbicidal rating, SAGPY ([5]; rate 0.1250 kg/ha): 8.0
- Postemergence herbicidal rating, ORYSAT ([6]; rate 0.0320 kg/ha): 3.5
- Postemergence herbicidal rating, ORYSAT ([6]; rate 0.0620 kg/ha): 4.5
- herbicide rating (0-9) ECHORC ([7]; 0.0320 kg/ha into flood water): 7.0
- herbicide rating (0-9) ECHORC ([7]; 0.0620 kg/ha into flood water): 9.0
- herbicide rating (0-9) ECHORC ([7]; 0.1250 kg/ha into flood water): 9.0
- herbicide rating (0-9) MOOVA ([8]; 0.0320 kg/ha into flood water): 4.0
- herbicide rating (0-9) MOOVA ([8]; 0.0620 kg/ha into flood water): 4.0
- herbicide rating (0-9) MOOVA ([8]; 0.1250 kg/ha into flood water): 6.0
- Postemergence herbicidal rating, CHEAL ([9]; rate 0.0320 kg/ha): 7.0
- Postemergence herbicidal rating, CHEAL ([9]; rate 0.0620 kg/ha): 9.0
- Postemergence herbicidal rating, CASOB ([10]; rate 0.0320 kg/ha): 4.0
- Postemergence herbicidal rating, CASOB ([10]; rate 0.0620 kg/ha): 9.0
- Postemergence herbicidal rating, AMBEL ([11]; rate 0.0320 kg/ha): 9.0
- Postemergence herbicidal rating, AMBEL ([11]; rate 0.0620 kg/ha): 9.0
- IPOHE preemergence herbicidal rating ([12]; Rate 0.0620 kg/ha): 1.5
- IPOHE preemergence herbicidal rating ([12]; Rate 0.1250 kg/ha): 4.0
- IPOHE preemergence herbicidal rating ([12]; Rate 0.2500 kg/ha): 6.0
- GLXMAW preemergence herbicidal rating ([13]; Rate 0.0620 kg/ha): 1.0
- GLXMAW preemergence herbicidal rating ([13]; Rate 0.1250 kg/ha): 3.0
- GLXMAW preemergence herbicidal rating ([13]; Rate 0.2500 kg/ha): 4.5
- herbicidal rating, CYPIR ([14]; rate 0.0080 kg/ha): 8.5
- herbicidal rating, CYPIR ([14]; rate 0.0320 kg/ha): 8.3
- herbicidal rating, CYPIR ([14]; rate 0.1250 kg/ha): 9.0
- Postemergence herbicidal rating, ECHCG ([15]; rate 0.0320 kg/ha): 3.0
- Postemergence herbicidal rating, ECHCG ([15]; rate 0.0620 kg/ha): 3.0
- TRZAWR preemergence herbicidal rating ([16]; Rate 0.0620 kg/ha): 2.0
- TRZAWR preemergence herbicidal rating ([16]; Rate 0.1250 kg/ha): 3.0
- TRZAWR preemergence herbicidal rating ([16]; Rate 0.2500 kg/ha): 7.0
- ORYSAT preemergence herbicidal rating ([17]; Rate 0.0620 kg/ha): 2.0
- ORYSAT preemergence herbicidal rating ([17]; Rate 0.1250 kg/ha): 3.0
- ORYSAT preemergence herbicidal rating ([17]; Rate 0.2500 kg/ha): 5.5
- herbicide rating (0-9) ORYSAT (rice tolerance) ([18]; 0.0320 kg/ha into flood water): 4.0
- herbicide rating (0-9) ORYSAT (rice tolerance) ([18]; 0.0620 kg/ha into flood water): 5.0
- herbicide rating (0-9) ORYSAT (rice tolerance) ([18]; 0.1250 kg/ha into flood water): 6.0
- herbicide rating (0-9) CYPSE ([19]; 0.0320 kg/ha into flood water): 7.0
- herbicide rating (0-9) CYPSE ([19]; 0.0620 kg/ha into flood water): 7.0
- herbicide rating (0-9) CYPSE ([19]; 0.1250 kg/ha into flood water): 7.0
